From patent US11046716B2, “Beta-lactamase inhibitors” (priority 2015, dated 2021)

Tests used:
SHV-5 = target: T1, SHV-5 (Klebsiella pneumoniae, UniProt P0A3M1); assay: β-lactamase enzyme inhibition assay, SHV-5 (cefotaxime substrate); assay type: biochemical
T1 construct: made in house; host or cells: E. coli BL21(DE3)
Procedure, shortened: (§1)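 Native untagged β-lactamases were expressed in E. coli BL21(DE3), then purified by cation exchange and gel filtration. Enzyme was preincubated with inhibitor for 15 min at 37 °C before substrate was added. Imipenem (A300) served KPC-2 and cefotaxime (A260) served SHV-5. IC50 was taken from initial hydrolysis rates relative to no-inhibitor controls.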

KPC-2 = target: T2, KPC-2 (Klebsiella pneumoniae, UniProt Q9F663); assay: β-lactamase enzyme inhibition assay, KPC-2 (imipenem substrate); assay type: biochemical; settings: Class A; imipenem substrate, 300 nm; read-out: KPC-2
T2 construct: made in house; host or cells: E. coli BL21(DE3)
T2 sequence (Q9F663 25-293, looked up): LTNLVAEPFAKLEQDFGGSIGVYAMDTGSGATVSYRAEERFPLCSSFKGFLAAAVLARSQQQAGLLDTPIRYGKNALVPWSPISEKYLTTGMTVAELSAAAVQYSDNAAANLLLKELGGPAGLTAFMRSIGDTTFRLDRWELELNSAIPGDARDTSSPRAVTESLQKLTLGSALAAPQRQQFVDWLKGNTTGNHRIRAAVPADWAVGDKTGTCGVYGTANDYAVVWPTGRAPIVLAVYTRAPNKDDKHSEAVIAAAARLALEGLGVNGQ
Procedure, shortened: as §1

VIM-2 = target: T3, VIM-2 (Escherichia coli, UniProt Q5U7L7); assay: β-lactamase enzyme inhibition assay, VIM-2 (nitrocefin substrate); assay type: biochemical; settings: Class B; nitrocefin substrate, 486 nm; read-out: VIM-2
T3 construct: made in house; host or cells: E. coli BL21(DE3)
Procedure, shortened: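 Purified VIM-2 preincubated with inhibitor for 15 min at 37° C, then nitrocefin (100 μM final) added and absorbance at 486 nm followed for 10 min. Maximum hydrolysis rates compared with inhibitor-free controls; IC50 fitted from percent inhibition across inhibitor concentrations.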

AmpC = target: T4, AmpC (Enterobacter cloacae, UniProt P05364); assay: β-lactamase enzyme inhibition assay, p99 AmpC (nitrocefin substrate); assay type: biochemical
T4 construct: made in house; host or cells: E. coli BL21(DE3)
T4 sequence (P05364 21-381): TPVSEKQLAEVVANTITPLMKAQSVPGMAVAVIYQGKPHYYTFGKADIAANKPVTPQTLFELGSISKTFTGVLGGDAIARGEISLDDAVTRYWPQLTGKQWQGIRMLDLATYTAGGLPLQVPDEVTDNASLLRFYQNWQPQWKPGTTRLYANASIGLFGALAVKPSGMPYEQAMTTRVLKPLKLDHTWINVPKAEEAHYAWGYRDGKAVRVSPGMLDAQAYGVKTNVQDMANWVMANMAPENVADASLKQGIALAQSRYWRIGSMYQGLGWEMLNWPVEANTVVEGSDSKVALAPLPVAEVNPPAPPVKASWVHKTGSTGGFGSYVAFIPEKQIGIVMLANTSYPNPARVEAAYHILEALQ
Procedure, shortened: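 Native untagged β-lactamases were expressed in E. coli BL21(DE3), then purified by cation exchange and gel filtration. Enzyme was preincubated with inhibitor for 15 min at 37 °C before substrate was added. IC50 was taken from initial hydrolysis rates relative to no-inhibitor controls.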

OXA-48 = OXA-48 (UniProt Q6XEC0); assay: β-lactamase enzyme inhibition assay, Class D oxacillinase; assay type: biochemical; settings: read-out: OXA-48
[1] = test system: E. coli expressing the Class A Extended Spectrum Beta-Lactamase (ESBL) CTX-M-15; assay: Broth microdilution MIC assay with ceftazidime, E. coli CTX-M-15; assay type: cell-based; settings: Fixed CAZ (ceftazidime) 4 μg/mL; E. coli ESBL4 CTX-M-15
Procedure, shortened: (§2)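 Test compounds in 2-fold dilutions (16 to 0.125 μg/mL final) in CAMHB were combined with a β-lactam at a static 4 μg/ml final. Plates were inoculated per CLSI broth microdilution with the β-lactamase-producing strain (pre-grown 3-5 h) and incubated 16-20 h at 37° C. MIC of test compound was read visually.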

[2] = test system: E. cloacae expressing the Class C P99; assay: Broth microdilution MIC assay with ceftazidime, E. cloacae P99; assay type: cell-based; settings: Fixed CAZ (ceftazidime) 4 μg/mL; E. cl. 144200 p99 AmpC
Procedure, shortened: as §2

[3] = test system: K. pneumoniae expressing the Class A carbapenemase KPC-2; assay: Broth microdilution MIC assay with meropenem, K. pneumoniae KPC-2; assay type: cell-based; settings: Fixed Mero (meropenem) 4 μg/mL; K. p. 156319 KPC-3
Procedure, shortened: as §2

[4] = test system: P. aeruginosa expressing the Class B carbapenemase VIM-2; assay: Broth microdilution MIC assay with meropenem, P. aeruginosa VIM-2; assay type: cell-based; settings: Fixed Mero (meropenem) 4 μg/mL; P. aerug. 2775 VIM-2
Procedure, shortened: as §2

[5] = test system: K. pneumoniae expressing the class A carbapenemase KPC-2 and the class B carbapenemase VIM-4; assay: Broth microdilution MIC assay with meropenem, K. pneumoniae KPC-2 and VIM-4; assay type: cell-based; settings: Fixed Mero (meropenem) 4 μg/mL; K. p. A-1797 KPC-2 VIM-4
Procedure, shortened: as §2

[6] = test system: K. pneumoniae producing the Class D carbapenemase OXA-48; assay: Broth microdilution MIC assay with meropenem, K. pneumoniae OXA-48; assay type: cell-based; settings: Fixed Mero (meropenem) 4 μg/mL; K. p. 11978 OXA-48
Procedure, shortened: as §2

T1 sequence (P0A3M1 22-286): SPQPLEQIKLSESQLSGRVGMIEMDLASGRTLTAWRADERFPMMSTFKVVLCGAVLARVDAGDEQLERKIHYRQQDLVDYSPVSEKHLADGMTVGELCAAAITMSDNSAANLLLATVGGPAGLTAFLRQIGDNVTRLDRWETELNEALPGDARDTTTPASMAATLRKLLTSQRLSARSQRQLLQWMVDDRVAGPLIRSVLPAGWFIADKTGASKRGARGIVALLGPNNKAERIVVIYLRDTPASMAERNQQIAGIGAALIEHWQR

Compound	IC50 (SHV-5) [nM]	IC50 (KPC-2) [nM]	IC50 (VIM-2) [nM]	IC50 (AmpC) [nM]	IC50 (OXA-48) [nM]	MIC (μg/mL) of Exemplary Compounds in presence of fixed β-lactams: E. coli ESBL4 CTX-M-15 [1]	MIC (μg/mL) of Exemplary Compounds in presence of fixed β-lactams: E. cl. 144200 p99 AmpC [2]	MIC (μg/mL) of Exemplary Compounds in presence of fixed β-lactams: K. p. 156319 KPC-3 [3]	MIC (μg/mL) of Exemplary Compounds in presence of fixed β-lactams: P. aerug. 2775 VIM-2 [4]	MIC (μg/mL) of Exemplary Compounds in presence of fixed β-lactams: K. p. A-1797 KPC-2 VIM-4 [5]	MIC (μg/mL) of Exemplary Compounds in presence of fixed β-lactams: K. p. 11978 OXA-48 [6]
Nc1n[nH]c2ncc(-c3cn(CC(=O)N[C@H]4Cc5cccc(C(=O)O)c5OB4O)nn3)cc12 [Example 36]	< 100	< 100	1000 to 10000	< 100	100 to 1000	C (C represents an MIC of <1 μg/mL)	C (C represents an MIC of <1 μg/mL)	B (B represents an MIC between 1 and 16 μg/mL inclusive)	B (B represents an MIC between 1 and 16 μg/mL inclusive)	A (A represents an MIC>16 μg/mL)	B (B represents an MIC between 1 and 16 μg/mL inclusive)
NCCCNC(=O)c1cn(CC(=O)N[C@H]2Cc3cccc(C(=O)O)c3OB2O)nn1 [Example 65, (R)-3-(2-(4-((3-aminopropyl)carbamoyl)-1H-1,2,3-triazol-1-yl)acetamido)-2-hydroxy-3,4-dihydro-2H-benzo[e][1,2]oxaborinine-8-carboxylic acid]	< 100	< 100	< 100	< 100	100 to 1000	C (C represents an MIC of <1 μg/mL)	C (C represents an MIC of <1 μg/mL)	C (C represents an MIC of <1 μg/mL)	B (B represents an MIC between 1 and 16 μg/mL inclusive)	B (B represents an MIC between 1 and 16 μg/mL inclusive)	B (B represents an MIC between 1 and 16 μg/mL inclusive)
CNCCNC(=O)c1cn(CC(=O)N[C@H]2Cc3cccc(C(=O)O)c3OB2O)nn1 [Example 87, (R)-2-hydroxy-3-(2-(4-((2-(methylamino)ethyl)carbamoyl)-1H-1,2,3-triazol-1-yl)acetamido)-3,4-dihydro-2H-benzo[e][1,2]oxaborinine-8-carboxylic acid]	100 to 1000	< 100	< 100	< 100	1000 to 10000	C (C represents an MIC of <1 μg/mL)	C (C represents an MIC of <1 μg/mL)	C (C represents an MIC of <1 μg/mL)	C (C represents an MIC of <1 μg/mL)	C (C represents an MIC of <1 μg/mL)	B (B represents an MIC between 1 and 16 μg/mL inclusive)
O=C(Cn1nnc(CO)c1CO)N[C@H]1Cc2cccc(C(=O)O)c2OB1O [Example 8, (R)-3-(2-(4,5-bis(hydroxymethyl)-1H-1,2,3-triazol-1-yl)acetamido)-2-hydroxy-3,4-dihydro-2H-benzo[e][1,2]oxaborinine-8-carboxylic acid]	< 100	100 to 1000	1000 to 10000	1000 to 10000	100 to 1000	C (C represents an MIC of <1 μg/mL)	C (C represents an MIC of <1 μg/mL)	B (B represents an MIC between 1 and 16 μg/mL inclusive)	B (B represents an MIC between 1 and 16 μg/mL inclusive)	B (B represents an MIC between 1 and 16 μg/mL inclusive)	B (B represents an MIC between 1 and 16 μg/mL inclusive)
NCC(=O)NCc1cn(CC(=O)N[C@H]2Cc3cccc(C(=O)O)c3OB2O)nn1 [Example 76, (R)-3-(2-(4-((2-aminoacetamido)methyl)-1H-1,2,3-triazol-1-yl)acetamido)-2-hydroxy-3,4-dihydro-2H-benzo[e][1,2]oxaborinine-8-carboxylic acid]	< 100	100 to 1000	< 100	< 100	100 to 1000	C (C represents an MIC of <1 μg/mL)	C (C represents an MIC of <1 μg/mL)	C (C represents an MIC of <1 μg/mL)	C (C represents an MIC of <1 μg/mL)	B (B represents an MIC between 1 and 16 μg/mL inclusive)	B (B represents an MIC between 1 and 16 μg/mL inclusive)
COc1c(C[C@H](NC(=O)Cn2cc(CN)nn2)B(O)O)cccc1C(=O)O [Example 31, (R)-3-(2-(2-(4-(aminomethyl)-1H-1,2,3-triazol-1-yl)acetamido)-2-boronoethyl)-2-methoxybenzoic acid]	< 100	< 100	100 to 1000	100 to 1000	1000 to 10000	B (B represents an MIC between 1 and 16 μg/mL inclusive)	C (C represents an MIC of <1 μg/mL)	B (B represents an MIC between 1 and 16 μg/mL inclusive)	C (C represents an MIC of <1 μg/mL)	B (B represents an MIC between 1 and 16 μg/mL inclusive)	A (A represents an MIC>16 μg/mL)
O=C(Cn1cc(C(=O)N[C@@H]2CCNC2)nn1)N[C@H]1Cc2cccc(C(=O)O)c2OB1O [Example 84, (R)-2-hydroxy-3-(2-(4-(((R)-pyrrolidin-3-yl)carbamoyl)-1H-1,2,3-triazol-1-yl)acetamido)-3,4-dihydro-2H-benzo[e][1,2]oxaborinine-8-carboxylic acid]	100 to 1000	< 100	< 100	< 100	100 to 1000	C (C represents an MIC of <1 μg/mL)	C (C represents an MIC of <1 μg/mL)	B (B represents an MIC between 1 and 16 μg/mL inclusive)	C (C represents an MIC of <1 μg/mL)	C (C represents an MIC of <1 μg/mL)	B (B represents an MIC between 1 and 16 μg/mL inclusive)
